Results taken from patent publication US10294202B2, “Pyrrolidinones as herbicides” (FMC Corporation, priority 2013, dated 2019).

Assays:
kochia = assay: Test C pre-/postemergence herbicide test; assay type: in vivo, Kochia scoparia
Outline: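 Compound solutions contained surfactant in a non-phytotoxic solvent. These were sprayed onto pots of loam/sand sown with seeds, and onto young plants (2 to 18 cm, 1- to 4-leaf) in sphagnum peat–vermiculite mix. Visual injury scores (0 none, 100 complete control) were recorded after 13 to 15 days.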

rice, transplanted = assay: Test F flood (paddy) test; assay type: in vivo, Oryza sativa cv. Japonica—M202; details: 21 d, scale 0-100
Outline: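 Greenhouse paddy, 30/27 °C day/night, 16-h light; sterilized Tama silt loam, 2.6% OM. Plants at 2.0–2.5 leaves; flood 3 cm, compound added directly to water. Visual score at 21 d, 0 = no effect, 100 = complete control, relative to untreated.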

bromegrass, downy = assay: Test D pre-/postemergence herbicide test; assay type: in vivo, Bromus tectorum; details: for Plant response rating: Bromegrass, Downy, scale 0 to 100; for Plant response rating, Bromegrass, Downy: scale 0 to 100 (0 no effect, 100 complete control)
Outline: (§1)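 Greenhouse pre- and postemergence screen with surfactant-containing non-phytotoxic solvent formulations. Silt loam soil served for preemergence application, and peat/vermiculite medium for postemergence application at 2–18 cm height. Visual 0–100 control ratings versus controls were recorded 7 to 21 days later.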

chickweed = assay: Test D pre-/postemergence herbicide test; assay type: in vivo, Stellaria media; details: for Plant response rating: Chickweed, scale 0 to 100; for Plant response rating, Chickweed: scale 0 to 100 (0 no effect, 100 complete control)
Outline: as §1

[1] = Preemergence, 62 g ai/ha, scale 0 to 100
[2] = Preemergence, 125 g ai/ha, scale 0 to 100 (0 no effect, 100 complete control)
[3] = Postemergence, 125 g ai/ha, scale 0 to 100 (0 no effect, 100 complete control)
[4] = Postemergence, 250 g ai/ha, scale 0 to 100 (0 no effect, 100 complete control)
[5] = Postemergence, 31 g ai/ha, scale 0 to 100 (0 no effect, 100 complete control)
[6] = Postemergence, 62 g ai/ha, scale 0 (no effect) to 100 (complete control)

SMILES | Plant response rating, Kochia (kochia; [1]) | Plant response rating, Kochia (kochia; [2]) | Plant response rating, Rice, Transplanted (rice, transplanted; 125 g ai/ha) | Plant response rating, Rice, Transplanted (rice, transplanted; 250 g ai/ha) | Plant response rating, Rice, Transplanted (rice, transplanted; 500 g ai/ha) | Plant response rating, Rice, Transplanted (rice, transplanted; 1000 g ai/ha) | Plant response rating, Rice, Transplanted (rice, transplanted; 2000 g ai/ha) | Plant response rating, Kochia (kochia; [3]) | Plant response rating, Kochia (kochia; [4]) | Plant response rating, Kochia (kochia; [5]) | Plant response rating, Kochia (kochia; [6]) | Plant response rating, Bromegrass, Downy (bromegrass, downy; Preemergence, 62 g ai/ha) | Plant response rating, Bromegrass, Downy (bromegrass, downy; Preemergence, 125 g ai/ha) | Plant response rating, Bromegrass, Downy (bromegrass, downy; Preemergence, 31 g ai/ha) | Plant response rating (bromegrass, downy; Preemergence, 250 g ai/ha) | Plant response rating, Chickweed (chickweed; Preemergence, 62 g ai/ha) | Plant response rating, Chickweed (chickweed; Preemergence, 125 g ai/ha) | Plant response rating, Chickweed (chickweed; Preemergence, 31 g ai/ha) | Plant response rating (chickweed; Preemergence, 250 g ai/ha) | other results
O=C1NCCC1C(=O)N(c1ccc(F)c(F)c1)c1ccccc1F (centres unmarked) [Compound 5, N-(3,4-difluorophenyl)-N-(2-fluorophenyl)-2-oxo-3-pyrrolidinecarboxamide] | 0 | 0 | 0 | 0 | 0 | 0 | 0 |  |  |  |  |  |  |  |  |  |  |  |  | 
O=C1NCC(c2ccc(F)c(F)c2)C1C(=O)Nc1cccc(F)c1F (centres unmarked) [Compound 17, N-(2,3-difluorophenyl)-4-(3,4-difluorophenyl)-2-oxo-3-pyrrolidinecarboxamide] | 50 | 60 | 10 | 10 | 10 | 10 | 10 | 0 | 5 |  |  |  |  |  |  |  |  |  |  | Plant response rating, Kochia (kochia; Postemergence, 31 g ai/ha, scale 0 (no effect) to 100 (complete control)): 0; Plant response rating, Kochia (kochia; Postemergence, 62 g ai/ha, scale 0 to 100 (0 no effect, 100 complete control)): 0; Plant response rating (bromegrass, downy; Postemergence, 16 g ai/ha): 0; Plant response rating (bromegrass, downy; Postemergence, 31 g ai/ha): 0; Plant response rating (bromegrass, downy; Postemergence, 62 g ai/ha): 0; Plant response rating (bromegrass, downy; Postemergence, 125 g ai/ha): 0; Plant response rating (bromegrass, downy; Postemergence, 250 g ai/ha): 0; Plant response rating (chickweed; Postemergence, 16 g ai/ha): 0; Plant response rating (chickweed; Postemergence, 31 g ai/ha): 0; Plant response rating (chickweed; Postemergence, 62 g ai/ha): 0; Plant response rating (chickweed; Postemergence, 125 g ai/ha): 25; Plant response rating (chickweed; Postemergence, 250 g ai/ha): 30
O=C1NC[C@H](c2cccc(C(F)(F)F)c2)[C@H]1C(=O)Nc1ccccc1F [Compound 204, (3R,4S)—N-(2-fluorophenyl)-2-oxo-4-[3-(trifluoromethyl)phenyl]-3-pyrrolidinecarboxamide] |  |  | 0 | 0 | 0 |  |  | 40 | 40 | 10 | 30 | 20 | 35 | 0 | 45 | 100 | 100 | 100 | 100 | 
O=C1NC[C@H](c2cccc(C(F)(F)F)c2)[C@H]1C(=O)Nc1cccc(F)c1F [Compound 206] |  |  | 0 | 10 | 40 |  |  | 30 | 70 | 50 | 70 | 25 | 55 | 10 | 70 | 100 | 70 | 30 | 95 | Plant response rating, Rice, Transplanted (rice, transplanted; 64 g ai/ha): 0
